Source: PMC13206195, “Low‐dose cannabidiol increases plasma concentrations of amitriptyline: A clinical drug–drug interaction study” (British Journal of Clinical Pharmacology, 2025)

What was measured:
[1] = cited from earlier work
[2] = Plasma pharmacokinetics (non-compartmental analysis) in open-label, fixed-sequence, 2-way crossover study in healthy participants; conditions: fasted, plasma; for AUC(0-t) / Cmax: human, in vivo, po; for AUC(0-t): AUClast
Experimental: (§1) This study was an open‐label, fixed sequence, 2‐way crossover study in 13 healthy participants. On Day 1, 25 mg amitriptyline and 50 mg tramadol were orally administered concurrently, followed by a wash‐out period of at least 7 days. On Day 8, 30 mg of oral CBD oil was administered 1 h prior to amitriptyline and tramadol. On Days 1 and 8, participants presented to the clinical research unit in the morning and were discharged in the evening, briefly returning in the morning of Days 2 and 9 for pharmacokinetic sampling.
The cannabidiol formulation used in this study was Clinican®, an almond oil‐based formulation containing 10% cannabidiol and manufactured by Clinical Cannabis Care (Breukelen, the Netherlands) and administered orally with 240 mL of water following an overnight fast. Single doses of 30 mg CBD were administered. […] Furthermore, we estimated that the 30 mg CBD dose is at the upper end of the range of CBD intake of patients who use CBD‐rich varieties of medicinal cannabis (or formulations containing THC and CBD, like Sativex®) for treatment of neuropathic pain symptoms,[23] and as well as an approximately median dose for OTC CBD users. Cannabidiol was administered one hour prior to amitriptyline and tramadol (during visit 2 only) to offset the slower absorption expected from an oil‐based cannabinoid formulation, compared to the victim drugs.
Generic oral formulations of tramadol (50 mg tramadol hydrochloride capsule) and amitriptyline (25 mg hydrochloride tablet) were used in this study. These doses were at the low end of the therapeutic range, allowing for a safety margin for possible increases in plasma concentrations when co‐administered with CBD. Tramadol and amitriptyline were not known to induce or inhibit CYP‐enzymes in general, and no specific pharmacokinetic interactions between the two victim drugs were known to the investigators. […] However, this risk was deemed clinically irrelevant when low, single doses were administered to healthy volunteers. Based on these consideration regarding pharmacokinetics and safety, the two victim drugs were administered together in a cocktail design.
Sampling for pharmacokinetics was performed pre‐dose and at 1, 2, 3, 4, 5, 6, 8, 12 and 24 h following the administration of amitriptyline and tramadol. Approximately 4 mL blood was collected via an i.v. catheter placed in an antecubital vein in the arm in polypropylene K2EDTA tubes. Following collection, samples were immediately cooled on ice. Within 30 min of collection, plasma was separated by centrifugation at approximately 2000 g for 10 min and promptly transferred into amber glass vials and stored at […]. The samples were analysed by the iC42 Laboratory (Department of Anesthesiology, University of Colorado, Aurora, Colorado, USA). CBD and CBD metabolites were analysed using a validated assay that was previously published (CBD metabolite concentrations not reported in this manuscript).[33] Concentrations of amitriptyline, nortriptyline, tramadol and O‐desmethyltramadol were determined using a validated assay that was based on a previously published high‐performance liquid chromatography tandem mass spectrometry (HPLC‐MS/MS) method.[34] Details regarding the bioanalytical assays used to measure CBD, amitriptyline, nortriptyline, tramadol and O‐desmethyltramadol are located in the Supplementary Materials section.
R 3.6.1 for Windows (R Foundation for Statistical Computing/R development Core Team, Vienna, Austria, 2019), PKNCA package version 0.9.5, was used to calculate pharmacokinetic parameters. PK parameter calculations were based on actual sampling time.

CYP3A4 and CYP2B6 = conditions: cited from earlier work
[3] = Comparison of PK parameters between visits (with vs without CBD) by mixed effects model ANOVA; conditions: for AUC(0-t) / Cmax: human, in vivo
Experimental: as §1
To establish whether significant treatment effects could be detected, the PK parameters were compared with a mixed effects model analysis of variance (ANOVA) with treatment as a fixed factor and participants as a random factor on log‐transformed data. The general treatment effect and specific contrasts were reported with the estimated difference and the 95% confidence interval, the least square mean estimates and the p‐value. All calculations were performed using SAS for Windows V9.4 (SAS Institute, Inc., Cary, NC, USA).

CYP2D6 = conditions: cited from earlier work
[4] = Visit 1 (Day 1): 25 mg amitriptyline + 50 mg tramadol oral, no CBD, N=13
[5] = Visit 2 (Day 8): 30 mg CBD oral 1 h prior to 25 mg amitriptyline + 50 mg tramadol, N=12
[6] = Geometric mean, Visit 1 (Day 1): 25 mg amitriptyline + 50 mg tramadol oral, no CBD, N=13
[7] = Geometric mean, Visit 2 (Day 8): 30 mg CBD oral 1 h prior to 25 mg amitriptyline + 50 mg tramadol, N=12
[8] = Mean, Visit 1 (Day 1): 25 mg amitriptyline + 50 mg tramadol oral, no CBD, N=13
[9] = Mean, Visit 2 (Day 8): 30 mg CBD oral 1 h prior to 25 mg amitriptyline + 50 mg tramadol, N=12
[10] = Median, Visit 1 (Day 1): 25 mg amitriptyline + 50 mg tramadol oral, no CBD, N=13
[11] = Median, Visit 2 (Day 8): 30 mg CBD oral 1 h prior to 25 mg amitriptyline + 50 mg tramadol, N=12
[12] = Visit 2 (with 30 mg CBD) vs Visit 1 (without CBD)

COc1cccc(C2(O)CCCCC2CN(C)C)c1 (centres unmarked) [Tramadol]
terminal half‐life [1]: 5 to 6 h | Clast, Geometric mean [2, 4]: 7.4 ng/mL | Clast, Mean [2, 4]: 8.9 ng/mL | Clast, Median [2, 4]: 8.4 ng/mL | tlag, Median [2, 4]: 0.0 h | Clast, Geometric mean [2, 5]: 6.8 ng/mL | Clast, Mean [2, 5]: 8.7 ng/mL | Clast, Median [2, 5]: 8.0 ng/mL | tlag, Median [2, 5]: 0.0 h | AUC(0-t) [2, 6]: 1130 ng·h/mL | AUC(0-t) [2, 7]: 1150 ng·h/mL | AUC(0-t) [2, 8]: 1170 ng·h/mL | AUC(0-t) [2, 9]: 1210 ng·h/mL | AUC(0-t) [2, 10]: 1240 ng·h/mL | AUC(0-t) [2, 11]: 1160 ng·h/mL | Cmax [2, 6]: 137 ng/mL | Cmax [2, 7]: 150 ng/mL | Cmax [2, 8]: 141 ng/mL | Cmax [2, 9]: 153 ng/mL | Cmax [2, 10]: 135 ng/mL | Cmax [2, 11]: 155 ng/mL | proportion of tramadol converted into N‐desmethyltramadol (N‐DSMT) by CYP3A4 and CYP2B6 (CYP3A4 and CYP2B6): approximately 20% | Clast, back transformed LSM Visit 1 ([3]; Visit 1: without CBD, mixed effects model on log-transformed data): 7.41 | AUClast, Ratio of LSMs [3, 12]: 1.04 | Clast, Ratio of LSMs [3, 12]: 0.97 | Cmax, Ratio of LSMs [3, 12]: 1.10 | Clast, back transformed LSM Visit 2 ([3]; Visit 2: with 30 mg CBD, mixed effects model on log-transformed data): 7.16 | AUC(0-t) [3]: 1130 ng·h/mL | Cmax [3]: 137 ng/mL | AUC(0-t) ([3]; 30 mg): 1180 ng·h/mL | Cmax ([3]; 30 mg): 151 ng/mL | proportion of tramadol converted into O‐desmethyltramadol (O‐DSMT) by CYP2D6 (CYP2D6): approximately 80%
